In patent US5084082A, “Soybean plants with dominant selectable trait for herbicide resistance” (priority 1990, dated 1992):

Experiments:
Format in all cases: in vivo, soybean
[1] = system: mutant line W28; assay: Test B postemergence cross resistance test; settings: Glycine max, post-emergence; for mean % injury to soybean at 16 g/ha: W28, 16 g/ha postemergence; for mean % injury to soybean at 64 g/ha: W28, 64 g/ha postemergence
Description: (§1) In the second postemergence test, six true-breeding resistant mutant lines (W4, W17, W19, W20, W23, and W28) were compared to Williams 82 for cross resistance to a broad range of ALS inhibitors including eight sulfonylureas and three imidazolinones. Two seeds were planted in each 10 cm pot and allowed to grow to the second trifoliolate stage. Pots were not thinned back if both plants were at the proper stage. For each of 11 herbicides, two rates (Table VII) were selected based on previous data: the low rate was expected to cause significant injury (but not death) to Williams 82 and the high rate was expected to severely injure or kill Williams 82. All but a few line x rate treatments were replicated twice.
(§2) In both postemergence tests, plants were returned to the greenhouse after treatment and provided with ample light, moisture, and nutrients to support healthy plant growth. Two to three ratings per pot were recorded over a three-week period and averaged to obtain a single value for each pot For each herbicide, analysis of variance on injury ratings was performed separately. Fisher's least significant difference (LSD) was used to determine the significance of line mean differences at each herbicide rate using the 95% level of confidence. […]

[2] = system: mutant line W17; assay: Test B postemergence cross resistance test; settings: Glycine max, post-emergence; for soybean crop injury (%) at 16 g/ha: W17, 16 g/ha postemergence; for soybean crop injury (%) at 64 g/ha: W17, 64 g/ha postemergence
Description: as §1, §2

[3] = system: mutant line W19; assay: Test B postemergence cross resistance test; settings: Glycine max, post-emergence; for percent soybean crop injury at 16 g/ha: W19, 16 g/ha postemergence; for percent soybean crop injury at 64 g/ha: W19, 64 g/ha postemergence
Description: as §1, §2

[4] = system: mutant line W23; assay: Test B postemergence cross resistance test; settings: Glycine max, post-emergence; for percent soybean injury at 16 g/ha: W23, 16 g/ha postemergence; for percent soybean injury at 64 g/ha: W23, 64 g/ha postemergence
Description: as §1, §2

[5] = system: mutant line W4; assay: Test B postemergence cross resistance test; settings: Glycine max, post-emergence; for % crop injury at 16 g/ha: W4, 16 g/ha postemergence; for % crop injury at 64 g/ha: W4, 64 g/ha postemergence
Description: as §1, §2

[6] = system: Williams 82; assay: Test B postemergence cross resistance test; settings: Glycine max, post-emergence
Description: as §1, §2

[7] = system: mutant W20; assay: Test A postemergence herbicide spray, greenhouse pots
Description: (§3) In the first post-emergence test, two true-breeding resistant mutant lines, W19 and W20, were compared to previously isolated tolerant mutants and wild-type Williams 82. Eighteen pots (20 cm diameter) of each soybean line (2 seeds per pot) were planted using a standard sterile potting mix. When the seedlings reached the second trifoliolate stage, plants were thinned back to one plant per pot. Each pot was then sprayed with a specific herbicide treatment using a conveyor belt spray apparatus to emulate field application. The nine different herbicide treatments included one rate (8 g/ha) of Compound 1 and two rates (8 and 32 g/ha) each of four other sulfonylurea herbicides (Compounds 2,3,7 and 8) (see Table VI) using a factorial treatment design with 2 replications.
as §2

[8] = system: Mutant 1-184A; assay: as above
Description: as §3, §2

[9] = system: mutant W19; assay: as above
Description: as §3, §2

[10] = system: Williams 82; assay: as above
Description: as §3, §2

[11] = system: mutant line W20; assay: Test B postemergence cross resistance test; settings: Glycine max, post-emergence; for percent crop injury at 16 g/ha: W20, 16 g/ha postemergence; for percent crop injury at 64 g/ha: W20, 64 g/ha postemergence
Description: as §1
In both postemergence tests, plants were returned to the greenhouse after treatment and provided with ample light, moisture, and nutrients to support healthy plant growth. Two to three ratings per pot were recorded over a three-week period and averaged to obtain a single value for each pot For each herbicide, analysis of variance on injury ratings was performed separately. Fisher's least significant difference (LSD) was used to determine the significance of line mean differences at each herbicide rate using the 95% level of confidence.

[12] = system: W20; assay: Test C preemergence (soil) sulfonylurea application; settings: 19 days after treatment
Description: (§4) W20, a line homozygous for a dominant sulfonylurea-resistance mutation, was compared to Williams 82 in terms of response to preemergence application of three sulfonylurea herbicides. The experimental unit consisted of a single 18 cm pot filled with soil (Sassafras loamy sand with 0.8% organic matter and pH 6.7) in which 6 seeds of a given soybean line were planted 2 cm deep. After planting, each pot was sprayed (using a conveyor belt spray apparatus to emulate field application) with one of 22 different treatments including a check sprayed with AGWT (90% acetone, 4% glycerol, 4% water, 2% Tween-20), and 21 different herbicide treatments using AGWT as a carrier. The herbicide treatments included 7 different concentrations (Table IX) each of three sulfonyl-ureas: Compound 5, Compound 4, and Compound 1. Each herbicide x line treatment was replicated three times. After herbicide treatment, pots were transferred to a greenhouse and arranged in a randomized complete block design. Nineteen days after treatment, each pot was rated visually for herbicide injury using the scale described previously. For each herbicide, analysis of variance on injury ratings was performed separately. Fisher's least significant difference (LSD) was used to determine the significance of line mean differences at each rate using the 95% level of confidence.

[13] = system: Williams 82; assay: as above; settings: 19 days after treatment
Description: as §4

[14] = system: mutant W20; assay: Postemergence herbicide spray test of W4-4 (Table VII-A); settings: two weeks after treatment
Experimental: (§5) To investigate this hypothesis, a postemergence herbicide spray test was conducted to compare the reaction of W4-4 to both W20 and wild-type Williams. The applicant was particularly interested in the resistance of W4-4 to herbicide treatments that were injurious to both Williams and W20 in a previous test (Table VII). […] Twenty-four plants each of W4-4, W20, and Williams were planted in separate 10 cm pots and allowed to grow to the second trifoliolate stage. Each pot constituted a single experimental unit receiving a single herbicide treatment. Herbicide treatments (Table VIIA) were applied as described for the first postemergence test and were replicated twice. Control plants were sprayed with the spray carrier solution only (water with 0.25% X77 surfactant). At two weeks after treatment, each plant was rated for % herbicide injury as described in Table VIII. Analysis of variance on injury ratings was performed separately for each herbicide to calculate treatment means and standard errors. Fisher's least significant difference (LSD) was used to determine the significance of line means differences at each herbicide rate using the 95% level of confidence. […]

[15] = system: Williams 82; assay: as above; settings: two weeks after treatment
Experimental: as §5

[16] = system: Mutant W4-4; assay: as above; settings: two weeks after treatment
Experimental: as §5

Compound	mean % injury to soybean at 16 g/ha [1] [%]	mean % injury to soybean at 64 g/ha [1] [%]	soybean crop injury (%) at 16 g/ha [2] [%]	soybean crop injury (%) at 64 g/ha [2] [%]	percent soybean crop injury at 16 g/ha [3] [%]	percent soybean crop injury at 64 g/ha [3] [%]	percent soybean injury at 16 g/ha [4] [%]	percent soybean injury at 64 g/ha [4] [%]	% crop injury at 16 g/ha [5] [%]	% crop injury at 64 g/ha [5] [%]	percent crop injury at 16 g/ha [11] [%]	percent crop injury at 64 g/ha [11] [%]	% Injury ([12]; W20, 1 g/ha preemergence) [%]	% Injury ([12]; W20, 3 g/ha preemergence) [%]	% Injury ([12]; W20, 10 g/ha preemergence) [%]	% Injury ([12]; W20, 30 g/ha preemergence) [%]	% Injury ([12]; W20, 100 g/ha preemergence) [%]	% Injury ([12]; W20, 300 g/ha preemergence) [%]	% Injury ([13]; WM 82, 1 g/ha preemergence) [%]	% Injury ([13]; WM 82, 3 g/ha preemergence) [%]	other results
COC(=O)c1sccc1S(=O)(=O)NC(=O)Nc1nc(C)nc(OC)n1 [Compound 2, Methyl 3-[[[[(4-methoxy-6-methyl-1,3,5-triazine-2-yl)amino]carbonyl]amino]sulfonyl]-2-thiophenecarboxylate]	0	5	0	3	0	6	0	8	0	5	5	5									soybean crop injury at 16 g/ha ([6]; Wm 82, 16 g/ha postemergence): 70%; soybean crop injury at 64 g/ha ([6]; Wm 82, 64 g/ha postemergence): 91%; mean % injury ([7]; W20, 8 g/ha postemergence): 0%; mean % injury ([7]; W20, 32 g/ha postemergence): 6%; mean % injury ([8]; 8 g/ha postemergence): 13%; mean % injury ([8]; 32 g/ha postemergence): 58%; mean % injury ([9]; W19, 8 g/ha postemergence): 0%; mean % injury ([9]; W19, 32 g/ha postemergence): 7%; mean % injury ([10]; WM 82, 8 g/ha postemergence): 13%; mean % injury ([10]; WM 82, 32 g/ha postemergence): 63%
COC(=O)c1ccccc1S(=O)(=O)NC(=O)Nc1nc(C)cc(C)n1 [Compound 4, Methyl 2-[[[[(4,6-dimethyl-2-pyrimidinyl)amino]carbonyl]amino]sulfonyl]benzoate]													0	0	17	68	90	95	55	88	mean % injury to soybean at 0.5 g/ha ([1]; W28, 0.5 g/ha postemergence): 0%; mean % injury to soybean at 2 g/ha ([1]; W28, 2 g/ha postemergence): 18%; soybean crop injury (%) at 0.5 g/ha ([2]; W17, 0.5 g/ha postemergence): 3%; soybean crop injury (%) at 2 g/ha ([2]; W17, 2 g/ha postemergence): 0%; percent soybean crop injury at 0.5 g/ha ([3]; W19, 0.5 g/ha postemergence): 3%; percent soybean crop injury at 2 g/ha ([3]; W19, 2 g/ha postemergence): 18%; percent soybean injury at 0.5 g/ha ([4]; W23, 0.5 g/ha postemergence): 8%; percent soybean injury at 2 g/ha ([4]; W23, 2 g/ha postemergence): 11%; % crop injury at 0.5 g/ha ([5]; W4, 0.5 g/ha postemergence): 10%; % crop injury at 2 g/ha ([5]; W4, 2 g/ha postemergence): 8%; pest or weed control at 0.5 g/ha ([6]; read-out: mean % injury): 58%; pest or weed control at 2 g/ha ([6]; read-out: mean % injury): 95%; % Injury ([12]; W20, 0.3 g/ha preemergence): 0%; % Injury ([13]; WM 82, 0.3 g/ha preemergence): 33%; % Injury ([13]; WM 82, 10 g/ha preemergence): 97%; % Injury ([13]; WM 82, 30 g/ha preemergence): 98%; % Injury ([13]; WM 82, 100 g/ha preemergence): 100%; % Injury ([13]; WM 82, 300 g/ha preemergence): 100%; percent crop injury at 0.5 g/ha ([11]; W20, 0.5 g/ha postemergence): 0%; percent crop injury at 2 g/ha ([11]; W20, 2 g/ha postemergence): 6%
CCOC(=O)c1ccccc1S(=O)(=O)NC(=O)Nc1nc(Cl)cc(OC)n1 [Compound 5, Ethyl 2[[[[(4-chloro-6-methoxy-2-pyrimidinyl)amino]carbonyl]amino]sulfonyl]benzoate]	0	0	0	0	0	20	0	10	6	0	0	0	0	0	0	3	10	15	0	0	pest or weed control at 16 g/ha ([6]; read-out: mean % injury): 40%; pest or weed control at 64 g/ha ([6]; read-out: mean % injury): 58%; % Injury ([12]; W20, 1000 g/ha preemergence): 35%; % Injury ([13]; WM 82, 10 g/ha preemergence): 0%; % Injury ([13]; WM 82, 30 g/ha preemergence): 15%; % Injury ([13]; WM 82, 100 g/ha preemergence): 47%; % Injury ([13]; WM 82, 300 g/ha preemergence): 68%; % Injury ([13]; WM 82, 1000 g/ha preemergence): 92%
COc1cc(OC)nc(NC(=O)NS(=O)(=O)c2ncccc2C(=O)N(C)C)n1 [Compound 6, 2-[[[[(4,6-dimethoxy-2-pyrimidinyl)amino]carbonyl]amino]sulfonyl]N,N-dimethyl-3-pyridinecarboxamide]	0	45	0	40	8	48	5	54	4	43	3	38									mean % injury ([14]; W20, 64 g/ha postemergence): 10%; mean % injury ([14]; W20, 125 g/ha postemergence): 28%; mean % injury ([15]; WM82, 64 g/ha postemergence): 60%; mean % injury ([15]; WM82, 125 g/ha postemergence): 68%; mean % injury ([16]; W4-4, 64 g/ha postemergence): 0%; mean % injury ([16]; W4-4, 125 g/ha postemergence): 8%; pest or weed control at 16 g/ha ([6]; read-out: mean % injury): 25%; pest or weed control at 64 g/ha ([6]; read-out: mean % injury): 66%
